From patent publication US20080004302A1, “Novel Compounds” (ASTRAZENECA AB, priority 2006, published 2008)
Counter-ions that a name gives are not always drawn. Like-named read-outs stand apart in the source and are kept apart here.

How the values were obtained:
FGFR kinase domain = biological target: T1, FGFR kinase domain (Homo sapiens, UniProt P11362, C488A/C584S); test: Kinase assay (ELISA) for inhibition of FGFR activity; assay type: biochemical
T1 construct: FGFR kinase domain (amino acids 458-765, C488A, C584S) N-terminally fused to a His6-tag; made in house
T1 sequence (P11362 458-765 C488A/C584S): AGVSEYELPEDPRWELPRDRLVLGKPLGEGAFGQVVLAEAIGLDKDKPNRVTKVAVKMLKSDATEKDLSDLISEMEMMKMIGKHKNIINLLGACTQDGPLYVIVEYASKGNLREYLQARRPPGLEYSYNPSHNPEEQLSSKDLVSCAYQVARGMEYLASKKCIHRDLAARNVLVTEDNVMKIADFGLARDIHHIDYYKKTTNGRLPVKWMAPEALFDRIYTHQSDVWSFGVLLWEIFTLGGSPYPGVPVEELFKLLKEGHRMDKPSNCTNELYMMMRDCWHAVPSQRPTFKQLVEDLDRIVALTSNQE
Procedure: To determine inhibition of FGFR activity, kinase assays were conducted using ELISA (Enzyme-Linked Immunosorbent Assay) technology.
Kinase activity assays were performed in 384-well polypropylene plates (Matrix, 4311) with a total volume of 40 μl in each well. Each well was coated with 2 μg of polyEAY substrate (Sigma, P3899) at 4° C. overnight. The plates were then washed once with 100 μl PBS and once with 100 μl 50 mM HEPES (pH 7.4) prior to the addition of the kinase assay reagents. […] Various concentrations of test compounds were each added in 5% (v/v) DMSO to yield a final assay DMSO concentration of 1.25% (v/v). The kinase reactions were incubated at room temperature for 45 minutes and stopped by washing the plate three times with 100 μl PBS plus 0.05% Tween. […] Following this, the plates were then washed repeatedly with 100 μl PBS plus 0.05% Tween to remove all traces of the antibody solution. 40 μl of 50 μg/ml 3,3′,5,5′-Tetramethylbenzidine (Sigma, T2885), 0.05M phosphate-citrate buffer, containing 0.03% sodium perborate was added to each well and the plates incubated at room temperature for twelve minutes. The colour reaction was stopped by the addition of 20 μl 2M H2SO4 and the plates read at 450 nm on a Spectrafluor Plus (Tecan).

FGFR1 IIIc [1] = biological target: T2, FGFR1 IIIc (Homo sapiens, UniProt P11362); test: Cell based inhibition of transiently expressed FGFR1 IIIc phosphorylation via use of ECHO technology (Cos-1 cells)
T2 construct: host or cells: Cos-1
T2 sequence (P11362 22-822): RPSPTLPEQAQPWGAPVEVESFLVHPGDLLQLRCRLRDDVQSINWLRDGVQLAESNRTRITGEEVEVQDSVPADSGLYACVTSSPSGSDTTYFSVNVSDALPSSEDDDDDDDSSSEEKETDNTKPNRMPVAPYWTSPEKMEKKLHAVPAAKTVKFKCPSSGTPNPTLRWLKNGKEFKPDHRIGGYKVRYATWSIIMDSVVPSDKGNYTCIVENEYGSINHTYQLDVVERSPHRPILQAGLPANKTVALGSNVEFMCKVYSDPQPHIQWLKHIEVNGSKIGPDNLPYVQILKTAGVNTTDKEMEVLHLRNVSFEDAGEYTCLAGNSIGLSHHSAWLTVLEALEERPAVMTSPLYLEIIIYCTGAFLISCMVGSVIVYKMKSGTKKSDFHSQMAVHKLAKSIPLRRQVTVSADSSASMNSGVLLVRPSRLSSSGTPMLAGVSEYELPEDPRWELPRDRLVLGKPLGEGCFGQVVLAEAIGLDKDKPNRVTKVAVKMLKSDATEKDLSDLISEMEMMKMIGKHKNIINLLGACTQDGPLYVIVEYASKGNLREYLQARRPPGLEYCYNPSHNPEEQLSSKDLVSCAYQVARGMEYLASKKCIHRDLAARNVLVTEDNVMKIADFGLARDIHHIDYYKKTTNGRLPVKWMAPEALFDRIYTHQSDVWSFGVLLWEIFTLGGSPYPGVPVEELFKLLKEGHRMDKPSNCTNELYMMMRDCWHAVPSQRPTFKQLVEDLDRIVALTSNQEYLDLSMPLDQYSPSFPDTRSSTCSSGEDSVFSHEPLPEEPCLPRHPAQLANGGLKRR

human IGF1R = biological target: T3, human IGF1R (Homo sapiens, UniProt P08069); test: Inhibition of insulin-like growth factor-1 receptor phosphorylation in R+ cells; assay type: cell-based; settings: 30 nM IGF1, read-out: IGF cell class
T3 construct: expressed in transfected cells; host or cells: R+ cells (R- mouse fibroblasts transfected with human IGF1R)
T3 sequence (P08069 31-1367): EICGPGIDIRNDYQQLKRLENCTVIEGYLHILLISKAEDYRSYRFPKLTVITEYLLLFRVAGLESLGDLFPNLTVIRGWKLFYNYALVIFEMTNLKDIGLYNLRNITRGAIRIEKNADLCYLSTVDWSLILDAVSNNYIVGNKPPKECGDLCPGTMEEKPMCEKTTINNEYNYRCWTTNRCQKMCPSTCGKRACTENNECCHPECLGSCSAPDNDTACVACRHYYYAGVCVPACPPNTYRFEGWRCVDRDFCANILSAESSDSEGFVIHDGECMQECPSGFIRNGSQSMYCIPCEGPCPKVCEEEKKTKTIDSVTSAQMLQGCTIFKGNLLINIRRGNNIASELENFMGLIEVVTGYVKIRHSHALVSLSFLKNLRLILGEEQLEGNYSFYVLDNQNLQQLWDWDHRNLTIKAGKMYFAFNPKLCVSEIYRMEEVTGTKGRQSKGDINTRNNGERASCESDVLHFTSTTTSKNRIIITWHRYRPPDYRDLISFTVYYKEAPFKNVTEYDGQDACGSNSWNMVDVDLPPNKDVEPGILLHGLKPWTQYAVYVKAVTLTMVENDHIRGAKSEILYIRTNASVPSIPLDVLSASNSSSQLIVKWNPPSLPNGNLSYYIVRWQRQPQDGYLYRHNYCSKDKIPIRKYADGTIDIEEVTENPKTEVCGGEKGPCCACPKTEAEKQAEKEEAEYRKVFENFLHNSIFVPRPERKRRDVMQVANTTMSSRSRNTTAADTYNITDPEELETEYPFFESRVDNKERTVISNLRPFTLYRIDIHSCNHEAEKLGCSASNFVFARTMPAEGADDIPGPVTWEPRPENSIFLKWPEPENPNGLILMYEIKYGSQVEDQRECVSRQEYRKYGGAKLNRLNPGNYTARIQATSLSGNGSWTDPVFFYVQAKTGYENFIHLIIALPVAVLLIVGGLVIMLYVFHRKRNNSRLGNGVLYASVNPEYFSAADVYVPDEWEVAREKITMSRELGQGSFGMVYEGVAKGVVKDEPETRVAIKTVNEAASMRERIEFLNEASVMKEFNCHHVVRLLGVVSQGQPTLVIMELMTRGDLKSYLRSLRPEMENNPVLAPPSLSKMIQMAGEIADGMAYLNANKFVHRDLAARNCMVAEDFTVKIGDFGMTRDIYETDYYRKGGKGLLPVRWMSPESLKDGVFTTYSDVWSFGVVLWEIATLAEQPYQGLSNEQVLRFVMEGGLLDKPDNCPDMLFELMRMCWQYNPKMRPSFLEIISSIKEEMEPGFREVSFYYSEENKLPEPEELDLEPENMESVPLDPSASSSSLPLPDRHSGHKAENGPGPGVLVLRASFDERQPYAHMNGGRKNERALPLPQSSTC

FGFR1 kinase = FGFR1 kinase (Homo sapiens, UniProt P11362); test: Kinase assay (using Caliper technology); assay type: biochemical
Chain of FGFR1 kinase (P11362 22-822): as the sequence (P11362 22-822) above
In short: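 Human FGFR1 kinase activity measured with a 13-mer fluorescently tagged FGFR1-specific peptide substrate; compounds serially diluted in 5% (v/v) DMSO. Reactions ran 1.5 h at room temperature, stopped with EDTA-containing HEPES pH 7.5 buffer. Phosphorylated and unphosphorylated peptide separated by microfluidic mobility shift.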

FGFR1 IIIc [2] = biological target: T2, FGFR1 IIIc; test: Cell based inhibition of transiently expressed FGFR1 IIIc phosphorylation (Cos-1 cells)
Erk phosphorylation = test: Growth factor (bFGF) stimulated Erk phosphorylation in NIH 3T3 cells; settings: Mus musculus, NIH3T3, NIH 3T3 cells, 3 ng/ml bFGF
[3] = FGFR inhibition tests, ELISA kinase assay, read-out: Activity class
[4] = Cos-1 cells, phospho-FGFR1, ECHO dosing, upper bound of bin, read-out: IC50
[5] = FGFR1 kinase, Caliper, upper bound of bin, read-out: IC50
[6] = Cos-1 cells, phospho-FGFR1, upper bound of bin, read-out: IC50

Structure (SMILES)	IC50 (FGFR kinase domain; [3]) [nM]	IC50 (FGFR1 IIIc [1]; [4]) [nM]	IC50 (human IGF1R) [nM]	IC50 (FGFR1 kinase; [5]) [nM]	IC50 (Erk phosphorylation) [nM]	further results
Cc1cc(CN(C)c2nccc(Nc3cc(C)[nH]n3)n2)on1 [Example 2, N-methyl-N-[(3-methylisoxazol-5-yl)methyl]-N′-(5-methyl-2H-pyrazol-3-yl)pyrimidine-2,4-diamine]	100 to 1000	< 1000	–	–	–	–
Cc1cc(Nc2ccnc(NCc3cc(C(N)=O)no3)n2)[nH]n1 [Example 4, 5-[[[4-[(5-methyl-2H-pyrazol-3-yl)amino]pyrimidin-2-yl]amino]methyl]isoxazole-3-carboxamide]	–	–	> 10000	–	–	IC50 (FGFR kinase domain; Activity class): 100 to 1000 nM; IC50 (FGFR1 IIIc [1]): < 10000 nM
CCCc1cc(Nc2ccnc(NCc3cc(C)no3)n2)n[nH]1 [Example 6, N-[(3-methylisoxazol-5-yl)methyl]-N ′-(5-propyl-2H-pyrazol-3-yl)pyrimidine-2,4-diamine]	< 100	< 200	100 to 1000	–	–	–
CCCc1cc(Nc2ccnc(NCc3cc(C4CC4)no3)n2)n[nH]1 [Example 7, N-[(3-cyclopropyl-1,2-oxazol-5-yl)methyl]-N′-(5-propyl-2H-pyrazol-3-yl)pyrimidine-2,4-diamine]	< 100	< 200	–	–	–	–
CCCc1cc(Nc2ccnc(NCc3cc(C(N)=O)no3)n2)n[nH]1 [Example 8, 5-[[[4-[(5-propyl-1H-pyrazol-3-yl)amino]pyrimidin-2-yl]amino]methyl]-1,2-oxazole-3-carboxamide]	< 100	< 1000	–	–	–	–
c1cc(Nc2cc(C3CC3)[nH]n2)nc(NCc2cc(C3CC3)no2)n1 [Example 10, N-[(3-cyclopropyl-1,2-oxazol-5-yl)methyl]-N′-(5-cyclopropyl-2H-pyrazol-3-yl)pyrimidine-2,4-diamine]	< 100	< 200	100 to 1000	–	–	–
NC(=O)c1cc(CNc2nccc(Nc3cc(C4CC4)n[nH]3)n2)on1 [Example 11, 5-[[[4-[(5-cyclopropyl-2H-pyrazol-3-yl)amino]pyrimidin-2-yl]amino]methyl]-1,2-oxazole-3-carboxamide]	< 100	< 1000	1000 to 10000	–	–	–
CCOCCCc1cc(Nc2ccnc(NCc3cc(C)no3)n2)n[nH]1 [Example 20, N′-[5-(3-ethoxypropyl)-2H-pyrazol-3-yl]-N-[(3-methyl-1,2-oxazol-5-yl)methyl]pyrimidine-2,4-diamine]	100 to 1000	< 10000	–	–	–	–
CCOCCCc1cc(Nc2ccnc(NCc3cc(C4CC4)no3)n2)[nH]n1 [Example 21, N-[(3-cyclopropyl-1,2-oxazol-5-yl)methyl]-N′-[5-(3-ethoxypropyl)-2H-pyrazol-3-yl]pyrimidine-2,4-diamine]	< 100	< 1000	–	–	–	–
CCOCCCc1cc(Nc2ccnc(NCc3cc(C(N)=O)no3)n2)[nH]n1 [Example 22, 5-[[[4-[[5-(3-ethoxypropyl)-2H-pyrazol-3-yl]amino]pyrimidin-2-yl]amino]methyl]-1,2-oxazole-3-carboxamide]	100 to 1000	< 30000	–	–	–	–
COc1ccc(CCc2cc(Nc3ccnc(NCc4cc(C5CC5)no4)n3)n[nH]2)cc1 [Example 25, N-[(3-cyclopropyl-1,2-oxazol-5-yl)methyl]-N′-[5-[2-(4-methoxyphenyl)ethyl]-2H-pyrazol-3-yl]pyrimidine-2,4-diamine]	100 to 1000	< 200	–	< 1000	–	–
COc1ccc(CCc2cc(Nc3ccnc(NCc4cc(C(N)=O)no4)n3)[nH]n2)cc1 [Example 26, 5-[[[4-[[5-[2-(4-methoxyphenyl)ethyl]-2H-pyrazol-3-yl]amino]pyrimidin-2-yl]amino]methyl]-1,2-oxazole-3-carboxamide]	100 to 1000	< 10000	–	< 1000	–	–
Cc1cc(CNc2nccc(Nc3cc(CCc4cccc(O)c4)[nH]n3)n2)on1 [Example 41, 3-[2-[5-[[2-[(3-methyl1,2-oxazol-5-yl)methylamino]pyrimidin-4-yl]amino]-1H-pyrazol-3-yl]ethyl]phenol]	–	< 1000	1000 to 10000	< 200	< 200	IC50 (FGFR1 IIIc [2]; [6]): < 1000 nM
COc1cc(CCc2cc(Nc3ccnc(NCc4cc(C)no4)n3)n[nH]2)cc(OC)c1 [Example 42, N′-[5-[2-(3,5-dimethoxyphenyl)ethyl]-2H-pyrazol-3-yl]-N-[(3-methyl1,2-oxazol-5-yl)methyl]pyrimidine-2,4-diamine]	–	–	1000 to 10000	–	< 200	IC50 (FGFR1 kinase): < 200 nM; IC50 (FGFR1 IIIc [2]): < 200 nM; IC50 (FGFR1 IIIc [1]): < 200 nM
Cc1cccc(CCc2cc(Nc3ccnc(NCc4cc(C)no4)n3)n[nH]2)c1 [Example 52, N-[(3-methyl1,2-oxazol-5-yl)methyl]-N′-[5-[2-(3-methylphenyl)ethyl]-1H-pyrazol-3-yl]pyrimidine-2,4-diamine hydrochloride]	–	< 1000	> 10000	< 200	< 200	IC50 (FGFR1 IIIc [2]; [6]): < 1000 nM
Cc1cc(CNc2nc(C)cc(Nc3cc(OC(C)C)[nH]n3)n2)on1 [Example 68, 6-methyl-N-[(3-methyl-1,2-oxazol-5-yl)methyl]-N′-(5-propan-2-yloxy-1H-pyrazol-3-yl)pyrimidine-2,4-diamine]	< 100	< 200	> 10000	< 200	–	–
Cc1cc(Nc2cc(OC(C)C)[nH]n2)nc(NCc2cc(C3CC3)no2)n1 [Example 69, N-[(3-cyclopropyl-1,2-oxazol-5-yl)methyl]-6-methyl-N′-(5-propan-2-yloxy-2H-pyrazol-3-yl)pyrimidine-2,4-diamine]	< 100	< 200	–	< 200	–	–
COc1cc(Nc2cc(OC(C)C)n[nH]2)nc(NCc2cc(C)no2)n1 [Example 70, 6-methoxy-N-[(3-methyl-1,2-oxazol-5-yl)methyl]-N′-(5-propan-2-yloxy-2H-pyrazol-3-yl)pyrimidine-2,4-diamine]	< 100	< 200	> 10000	< 200	–	–
COc1cc(Nc2cc(OC(C)C)[nH]n2)nc(NCc2cc(C3CC3)no2)n1 [Example 71, N-[(3-cyclopropyl-1,2-oxazol-5-yl)methyl]-6-methoxy-N′-(5-propan-2-yloxy-2H-pyrazol-3-yl)pyrimidine-2,4-diamine]	< 100	< 200	–	< 200	–	–
CNC(=O)c1cccc(COc2cc(Nc3ccnc(NCc4cc(C)no4)n3)n[nH]2)c1 [Example 91, N-methyl-3-[[5-[[2-[(3-methyl1,2-oxazol-5-yl)methylamino]pyrimidin-4-yl]amino]-1H-pyrazol-3-yl]oxymethyl]benzamide]	–	< 1000	> 10000	< 200	< 200	IC50 (FGFR1 IIIc [2]; [6]): < 1000 nM
Cc1cc(CNc2nccc(Nc3cc(OCc4cccc(Cl)c4)[nH]n3)n2)on1 [Example 93, N′-[5-[(3-chlorophenyl)methoxy]-1H-pyrazol-3-yl]-N-[(3-methyl1,2-oxazol-5-yl)methyl]pyrimidine-2,4-diamine hydrochloride]	–	< 1000	> 10000	< 1000	< 200	IC50 (FGFR1 IIIc [2]; [6]): < 1000 nM
Cc1cc(CNc2nccc(Nc3cc(OCc4cccc(F)c4)[nH]n3)n2)on1 [Example 94, N′-[5-[(3-fluorophenyl)methoxy]-1H-pyrazol-3-yl]-N-[(3-methyl1,2-oxazol-5-yl)methyl]pyrimidine-2,4-diamine hydrochloride]	–	< 200	> 10000	< 1000	< 200	IC50 (FGFR1 IIIc [2]; [6]): < 1000 nM
COC(=O)c1cccc(COc2cc(Nc3ccnc(NCc4cc(C)no4)n3)n[nH]2)c1 [Example 97, Methyl 3-[[5-[[2-[(3-methyl1,2-oxazol-5-yl)methylamino]pyrimidin-4-yl]amino]-1H-pyrazol-3-yl]oxymethyl]benzoate hydrochloride]	–	< 200	1000 to 10000	–	< 200	IC50 (FGFR1 IIIc [2]; [6]): < 200 nM
c1coc(CCc2cc(Nc3ccnc(NCc4cc(C5CC5)no4)n3)n[nH]2)c1 [Example 111, N-[(3-cyclopropyl1,2-oxazol-5-yl)methyl]-N′-[5-[2-(2-furyl)ethyl]-2H-pyrazol-3-yl]pyrimidine-2,4-diamine]	–	< 200	1000 to 10000	< 200	< 200	IC50 (FGFR1 IIIc [2]; [6]): < 1000 nM
